Data: article PMC12040169 (PLOS Biology, 2025)

Test: in vitro
Conditions: human, hela cells

Compound	viability at 28.5 h, 10 µM
CS(=O)(=O)c1ccc(-c2ccc3c(c2)OCCN(C2CCN(C(=O)Oc4ccccc4)CC2)C3)cc1 [CBK169259]	79.9%

Same assay, conditions: human, hela cells, % viability

Compound	viability at 28.5 h, 10 µM
O=C(NCCN1CCCC1)c1ccc(Nc2cncc(-c3ccc(O)cc3)n2)c(Cl)c1 [CBK122666]	85.4%
COc1ncc(-c2cncc(Nc3ccccc3)n2)c(OC)n1 [CBK065282]	100%
CCCN1CCN(S(=O)(=O)c2ccc(C)cc2)CC1 [CBK270326]	90%
Cc1c(NC(=O)COc2ccc([N+](=O)[O-])cc2)cccc1-c1nc2ncccc2o1 [CBK263912]	105%
Cc1sc(-c2cnccn2)nc1O [CBK067738]	97.3%
COc1ccc(S(=O)(=O)Nc2nnc(C(C)C)s2)cc1 [CBK045525]	91.3%
O=C(c1nccs1)C1CCN(C(=O)Cc2cccc(F)c2)CC1 [CBK284208]	94.6%
Cc1ncc([N+](=O)[O-])n1CC(=O)NC1CCCCCC1 [CBK269194]	97.4%
Nc1ccccc1Sc1nc2ccccc2nc1C(F)(F)F [CBK093776]	96.1%
O=C(CSc1ncnc2c1oc1ccccc12)NC1CCCC1 [CBK287788]	99.4%
O=C(Nc1ccc(Cl)cc1)Nc1cc(S(=O)(=O)N2CCCC2)ccc1Cl [CBK266122]	98%
CS(=O)(=O)N(Cc1ccco1)Cc1cc2ccccc2nc1O [CBK269434]	111%
CCCN(CCC)C(=O)c1ccc(-n2nc(C(=O)OCC)c(Br)c2C)cc1 [CBK114363]	109%
O=C(c1[nH]nc(O)c1Cc1c(Cl)cccc1Cl)N1CCOCC1 [CBK107228]	101%
CC(C)c1c(N)nc(SCc2ccccc2)nc1Cl [CBK016721]	123%
CCOC(=O)c1cnc2c(C)cc(C)cc2c1NCCCN(C)C [CBK266021]	76.5%
CCOC(=O)c1c(-n2cnnn2)sc(C)c1C [CBK027660]	93.6%
c1csc(C2CN(c3nccn4cnnc34)CCO2)c1 (centres unmarked) [CBK306380]	85%
O=C(Nc1cccnc1)c1cnc2cc(Cl)ccc2c1O [CBK107353]	82.6%
NC(=S)N1N=C(c2ccccc2)CC1c1ccccc1 (centres unmarked) [CBK288435]	95.6%
COc1ccc2cc(C(=O)N3Cc4cnn(CCO)c4C3)n(C)c2c1 [CBK306707]	94.5%
Cc1cc(OCC(=O)NCCCN2CCOCC2)cc(C)c1Br [CBK265082]	99.9%

Compound	viability at 28.5 h, 10 µM
CN1CCN(CC(=O)Nc2cc(N3CCOCC3)ccc2[N+](=O)[O-])CC1 [CBK047475]	92.9%
O=S(=O)(Nc1cc(Cl)nc(Cl)c1)c1ccc(-c2cc(C(F)(F)F)on2)s1 [CBK062215]	90.9%
O=C(NC(=S)Nc1ccc2oc(-c3ccncc3)nc2c1)c1cc(Br)ccc1Cl [CBK264343]	87.8%
COc1ccc(C)cc1S(=O)(=O)N(CC(=O)O)Cc1ccccc1 [CBK267847]	108%
COc1ccccc1CN1CCc2[nH]c(=S)[nH]c(=O)c2C1 [CBK288495]	104%
CC(C)(C)C(=O)CN1CCC(C(=O)NC(c2ccccc2)c2ccco2)CC1 (centres unmarked) [CBK148298]	109%
COc1ccc(C(C)N(CCN2CCOCC2)C(=O)NCc2cccc3ccccc23)cc1OC (centres unmarked) [CBK158984]	96.4%
Cn1nc(C2CC2)cc1NC(=O)NCC1CCN(c2ccccc2F)C1 (centres unmarked) [CBK304380]	85.2%
Cn1nccc1NS(=O)(=O)c1ccc(-c2cc(C(F)(F)F)on2)s1 [CBK062087]	97.4%
CC(C)(C)OC(=O)Nc1ccc(Oc2ncc(C(F)(F)F)cc2Cl)cc1 [CBK161658]	99.2%
Cc1cnn(CC(=O)NC(Cc2ccsc2)c2nc(C)cs2)c1 (centres unmarked) [CBK285151]	86.6%
COc1ccccc1N(CCCc1cc(C(F)(F)F)cc(C(F)(F)F)c1)C(=O)C(N)C(C)C (centres unmarked) [CBK001004T]	98.5%
NC1OC(COC(=O)c2ccccc2)C(OC(=O)c2ccccc2)C1OC(=O)c1ccccc1 (centres unmarked) [CBK010282]	95.3%
N#CCCN(C1CCCCC1)S(=O)(=O)c1ccc(-c2ccc([N+](=O)[O-])cc2)cc1 [CBK261382]	90.6%
CCCc1nn(CC(=O)N(C)C)c(=O)c2cc3ccsc3n12 [CBK284193]	84.4%
CCCCc1c(O)c2ccccc2n(Cc2ccccc2)c1=O [CBK219416]	106%
CC(C)(C)OC(=O)NCc1ccc(CNCc2ccccc2Br)cc1 [CBK056701]	96.6%
CC(C)(C)OC(=O)N1CCN(c2cc(N)ncn2)CC1 [CBK001963]	101%
N#C/C(=N/Nc1ccc(Br)cc1)C1=NC(=O)CS1 [CBK018747]	96%
CN(Cc1nc2c(s1)CCCC2)C(=O)c1ccc2[nH]cnc2c1 [CBK304138]	88.4%
CNC(=O)c1c(C)nc2ccccc2c1SCCC(=O)O [CBK154987T]	101%
